Results: patent publication US20240150375A1, “MACROCYCLIC COMPOUNDS AND USES THEREOF” (Theseus Pharmaceuticals, Inc., priority 2021, published 2024)

Key:
EGFR^L858R/T790M = EGFR^L858R/T790M (Homo sapiens, UniProt P00533, L858R/T790M); assay: HTRF KinEASE-TK in vitro kinase assay, EGFR L858R/T790M (LT); format: biochemical; settings: EGFR L858R/T790M kinase inhibition
Description: (§1) The biological activity of compounds described herein can be studied according to standard methods known in the art. Methods can be used to study inhibition of EGFR, including mutant forms of EGFR comprising L858R, T790M, C797S, and/or Del19 mutations, or any combination thereof (e.g., L858R single, double, or triple mutants). Exemplary, non-limiting methods are described herein.
(§2) Assays using an in vitro kinase assay kit (HTRF KinEASE-TK kit) can be used to study the inhibitory activity of compounds described herein with respect to EGFR mutants such as ECFR^L858R, EGFR^L858R/T790M, and EGFR^L858R/T790M/C797S.
(§3) One hundred thirty six compounds were studied using the kinase (EGFR) and BA/F3 assays described herein, with more than 60% of the tested compounds providing IC50<50 nM values in all six assays. Accordingly, compounds of the invention are a new general class of kinase inhibitors, including potent inhibitors of EGFR mutants.
(§4) Exemplary kinase inhibition (Kinase) and anti-proliferation activity (Ba/F3) data are shown in Table 1 for certain compounds of the invention and are categorized according to the below legend.

EGFR^L858R = EGFR^L858R (Homo sapiens, UniProt P00533, L858R); assay: HTRF KinEASE-TK in vitro kinase assay, EGFR L858R (L); format: biochemical; settings: EGFR L858R kinase inhibition
EGFR^L858R, sequence (P00533 25-1210 L858R): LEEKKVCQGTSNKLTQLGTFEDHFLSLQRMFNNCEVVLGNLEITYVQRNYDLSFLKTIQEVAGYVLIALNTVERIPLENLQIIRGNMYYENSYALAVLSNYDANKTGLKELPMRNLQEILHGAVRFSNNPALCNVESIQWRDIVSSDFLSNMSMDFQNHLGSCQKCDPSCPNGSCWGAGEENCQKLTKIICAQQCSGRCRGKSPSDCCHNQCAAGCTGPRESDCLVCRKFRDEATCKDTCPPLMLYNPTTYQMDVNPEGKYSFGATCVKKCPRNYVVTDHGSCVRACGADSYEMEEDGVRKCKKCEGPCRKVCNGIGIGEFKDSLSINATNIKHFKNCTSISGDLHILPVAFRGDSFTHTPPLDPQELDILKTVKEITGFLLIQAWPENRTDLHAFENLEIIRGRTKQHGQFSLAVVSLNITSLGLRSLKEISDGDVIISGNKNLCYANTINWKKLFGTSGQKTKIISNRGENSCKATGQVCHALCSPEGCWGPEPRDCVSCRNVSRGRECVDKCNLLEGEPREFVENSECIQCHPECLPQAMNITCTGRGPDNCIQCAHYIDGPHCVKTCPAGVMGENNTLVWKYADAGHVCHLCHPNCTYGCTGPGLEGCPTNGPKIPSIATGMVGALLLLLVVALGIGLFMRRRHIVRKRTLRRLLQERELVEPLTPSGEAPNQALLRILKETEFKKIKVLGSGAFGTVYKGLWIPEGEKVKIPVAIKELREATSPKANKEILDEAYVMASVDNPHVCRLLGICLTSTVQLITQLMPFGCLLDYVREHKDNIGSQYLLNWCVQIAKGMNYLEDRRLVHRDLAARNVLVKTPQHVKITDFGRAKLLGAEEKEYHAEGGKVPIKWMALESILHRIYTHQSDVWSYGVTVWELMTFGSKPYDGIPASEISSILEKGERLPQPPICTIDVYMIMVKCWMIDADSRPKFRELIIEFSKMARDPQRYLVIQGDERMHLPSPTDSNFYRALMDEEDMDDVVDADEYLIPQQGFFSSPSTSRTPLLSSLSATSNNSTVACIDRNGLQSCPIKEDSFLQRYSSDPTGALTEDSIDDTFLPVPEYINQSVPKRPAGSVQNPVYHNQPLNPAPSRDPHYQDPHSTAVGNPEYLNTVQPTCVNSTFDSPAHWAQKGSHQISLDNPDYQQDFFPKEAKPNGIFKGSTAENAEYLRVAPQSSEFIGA
Description: as §1, §2, §3, §4

Ba/F3 EGFR-Del19/C797S = Ba/F3 EGFR-Del19/C797S (Homo sapiens, UniProt P00533, C797S, cells depend on it, form not given); assay: Ba/F3 viability assay (CellTiter-Glo), EGFR-Del19/C797S (DC); format: cell-based; settings: Ba/F3 EGFR-Del19/C797S anti-proliferation; read-out: BAF3 DC IC50
Description: (§5) Inhibition of cell proliferation can be studied using Ba/F3 viability assays, including the Promega CellTiter-Glo cell viability assay. This assay can be used to study the effect of compounds described herein in the following assays: (1) Ba/F3 Parental; (2) Ba/F3 EGFR-Del19/T790M; (3); Ba/F3 EGFR-Del19/C797S; and (4) Ba/F3 EGFR-Del119/T790M/C797S.
as §3, §4

[1] = target: Ba/F3 EGFR-Del19/T790M/C797S (Homo sapiens, UniProt P00533, T790M/C797S, cells depend on it, form not given); assay: Ba/F3 viability assay (CellTiter-Glo), EGFR-Del19/T790M/C797S (DTC); format: cell-based; settings: Ba/F3 EGFR-Del19/T790M/C797S anti-proliferation; read-out: BAF3 DTC IC50
Description: as §5, §3, §4

EGFR^L858R/T790M/C797S = EGFR^L858R/T790M/C797S (Homo sapiens, UniProt P00533, C797S/L858R/T790M); assay: HTRF KinEASE-TK in vitro kinase assay, EGFR L858R/T790M/C797S (LTC); format: biochemical; settings: EGFR L858R/T790M/C797S kinase inhibition
EGFR^L858R/T790M/C797S, sequence (P00533 25-1210 T790M/C797S/L858R): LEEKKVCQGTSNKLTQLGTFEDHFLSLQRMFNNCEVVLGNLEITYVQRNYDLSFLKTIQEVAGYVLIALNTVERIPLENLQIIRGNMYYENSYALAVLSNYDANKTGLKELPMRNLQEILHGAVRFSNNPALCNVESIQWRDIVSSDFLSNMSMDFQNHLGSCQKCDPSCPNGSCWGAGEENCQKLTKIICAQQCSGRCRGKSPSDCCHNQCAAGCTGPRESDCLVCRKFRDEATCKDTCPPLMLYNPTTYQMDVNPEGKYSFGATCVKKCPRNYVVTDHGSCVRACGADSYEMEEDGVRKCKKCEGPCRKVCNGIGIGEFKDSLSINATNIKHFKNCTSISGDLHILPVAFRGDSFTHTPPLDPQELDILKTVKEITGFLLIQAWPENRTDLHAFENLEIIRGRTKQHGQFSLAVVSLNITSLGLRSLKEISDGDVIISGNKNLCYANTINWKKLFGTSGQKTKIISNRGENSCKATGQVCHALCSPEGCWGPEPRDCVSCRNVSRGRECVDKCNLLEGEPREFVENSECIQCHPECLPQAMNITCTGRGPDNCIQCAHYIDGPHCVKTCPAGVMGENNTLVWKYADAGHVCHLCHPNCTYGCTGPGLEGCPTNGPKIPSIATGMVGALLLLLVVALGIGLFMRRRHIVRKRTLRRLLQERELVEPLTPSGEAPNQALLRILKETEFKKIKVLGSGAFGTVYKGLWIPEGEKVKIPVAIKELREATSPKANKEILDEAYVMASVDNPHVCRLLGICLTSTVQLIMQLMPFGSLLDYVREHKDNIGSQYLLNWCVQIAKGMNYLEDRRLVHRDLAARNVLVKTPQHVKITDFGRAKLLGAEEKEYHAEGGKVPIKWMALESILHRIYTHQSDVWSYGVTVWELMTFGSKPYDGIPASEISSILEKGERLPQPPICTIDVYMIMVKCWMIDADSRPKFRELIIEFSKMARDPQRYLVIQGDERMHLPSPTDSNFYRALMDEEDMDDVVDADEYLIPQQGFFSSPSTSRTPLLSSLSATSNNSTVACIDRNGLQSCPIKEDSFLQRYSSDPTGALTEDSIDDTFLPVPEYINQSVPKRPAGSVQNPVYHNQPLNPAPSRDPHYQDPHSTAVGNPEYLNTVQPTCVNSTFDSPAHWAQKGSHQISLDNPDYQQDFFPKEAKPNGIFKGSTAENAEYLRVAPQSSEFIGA
Description: as §1, §2, §3, §4

Ba/F3 EGFR-Del19/T790M = Ba/F3 EGFR-Del19/T790M (Homo sapiens, UniProt P00533, T790M, cells depend on it, form not given); assay: Ba/F3 viability assay (CellTiter-Glo), EGFR-Del19/T790M (DT); format: cell-based; settings: Ba/F3 EGFR-Del19/T790M anti-proliferation; read-out: BAF3 DT IC50
Ba/F3 EGFR-Del19/T790M, sequence (P00533 with tags, fused parts or gaps DEL746-750/T790M, form open): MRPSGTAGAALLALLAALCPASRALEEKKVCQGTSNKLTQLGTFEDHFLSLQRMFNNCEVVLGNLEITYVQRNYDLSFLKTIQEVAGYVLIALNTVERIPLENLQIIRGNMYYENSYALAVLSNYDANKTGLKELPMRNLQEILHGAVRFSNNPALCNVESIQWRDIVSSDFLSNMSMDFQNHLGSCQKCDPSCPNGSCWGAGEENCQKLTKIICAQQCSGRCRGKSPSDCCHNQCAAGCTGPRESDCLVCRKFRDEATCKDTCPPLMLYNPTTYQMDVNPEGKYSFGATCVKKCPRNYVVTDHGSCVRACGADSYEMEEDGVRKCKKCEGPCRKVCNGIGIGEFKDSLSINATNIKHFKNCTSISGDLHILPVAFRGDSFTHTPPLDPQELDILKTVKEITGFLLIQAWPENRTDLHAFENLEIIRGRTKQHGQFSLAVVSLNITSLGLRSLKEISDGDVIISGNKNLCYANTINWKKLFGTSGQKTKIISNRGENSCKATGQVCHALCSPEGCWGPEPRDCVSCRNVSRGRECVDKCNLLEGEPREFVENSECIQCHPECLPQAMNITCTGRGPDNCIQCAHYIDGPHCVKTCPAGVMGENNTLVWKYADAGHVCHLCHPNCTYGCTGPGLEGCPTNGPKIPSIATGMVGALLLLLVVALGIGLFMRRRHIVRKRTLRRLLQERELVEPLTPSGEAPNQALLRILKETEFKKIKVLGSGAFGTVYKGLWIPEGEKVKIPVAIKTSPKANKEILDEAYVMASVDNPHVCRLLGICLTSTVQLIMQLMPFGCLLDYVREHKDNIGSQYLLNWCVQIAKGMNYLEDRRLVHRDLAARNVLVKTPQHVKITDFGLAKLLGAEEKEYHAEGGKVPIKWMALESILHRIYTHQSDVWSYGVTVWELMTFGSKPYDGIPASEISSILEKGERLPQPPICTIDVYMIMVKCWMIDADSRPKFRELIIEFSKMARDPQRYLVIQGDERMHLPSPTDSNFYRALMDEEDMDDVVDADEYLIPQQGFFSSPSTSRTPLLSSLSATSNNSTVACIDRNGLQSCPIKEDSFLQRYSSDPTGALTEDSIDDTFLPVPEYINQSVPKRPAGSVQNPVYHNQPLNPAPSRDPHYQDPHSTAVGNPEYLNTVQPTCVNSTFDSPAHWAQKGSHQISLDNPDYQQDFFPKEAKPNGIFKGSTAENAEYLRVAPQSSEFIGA
Description: as §5, §3, §4

EGFR^L858R/T790M, sequence (P00533 25-1210 T790M/L858R): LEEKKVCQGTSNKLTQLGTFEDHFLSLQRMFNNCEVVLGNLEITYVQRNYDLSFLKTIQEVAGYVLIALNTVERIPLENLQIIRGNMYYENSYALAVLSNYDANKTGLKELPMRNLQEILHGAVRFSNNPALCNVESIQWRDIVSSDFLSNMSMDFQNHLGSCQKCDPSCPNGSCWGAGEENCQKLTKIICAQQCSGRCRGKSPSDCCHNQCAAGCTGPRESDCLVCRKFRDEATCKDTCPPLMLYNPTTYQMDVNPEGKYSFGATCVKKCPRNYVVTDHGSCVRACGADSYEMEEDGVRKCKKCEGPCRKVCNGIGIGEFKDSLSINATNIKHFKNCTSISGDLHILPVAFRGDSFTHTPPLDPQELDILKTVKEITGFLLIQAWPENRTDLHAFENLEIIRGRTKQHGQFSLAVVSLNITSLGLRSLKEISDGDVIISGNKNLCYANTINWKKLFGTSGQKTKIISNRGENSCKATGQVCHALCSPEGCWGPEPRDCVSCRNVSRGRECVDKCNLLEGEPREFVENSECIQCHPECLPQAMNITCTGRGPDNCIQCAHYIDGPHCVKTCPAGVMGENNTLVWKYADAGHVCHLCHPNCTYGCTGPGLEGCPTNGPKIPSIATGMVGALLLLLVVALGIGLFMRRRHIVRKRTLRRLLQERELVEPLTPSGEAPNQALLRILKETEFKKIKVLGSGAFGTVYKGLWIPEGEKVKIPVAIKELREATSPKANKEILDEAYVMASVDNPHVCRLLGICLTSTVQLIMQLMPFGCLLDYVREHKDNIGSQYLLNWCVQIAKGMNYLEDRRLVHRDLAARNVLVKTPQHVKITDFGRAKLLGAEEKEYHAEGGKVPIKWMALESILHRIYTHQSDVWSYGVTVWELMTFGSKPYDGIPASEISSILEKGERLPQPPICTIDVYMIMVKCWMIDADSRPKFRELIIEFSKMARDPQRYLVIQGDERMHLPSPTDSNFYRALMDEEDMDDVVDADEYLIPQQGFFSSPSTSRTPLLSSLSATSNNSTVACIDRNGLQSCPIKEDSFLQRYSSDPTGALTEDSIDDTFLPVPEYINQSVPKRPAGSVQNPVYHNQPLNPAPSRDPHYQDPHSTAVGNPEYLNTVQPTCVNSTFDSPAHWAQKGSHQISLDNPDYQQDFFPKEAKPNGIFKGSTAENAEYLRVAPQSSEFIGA

Compound	IC50 (EGFR^L858R/T790M) [nM]	IC50 (EGFR^L858R) [nM]	GI50 (Ba/F3 EGFR-Del19/C797S) [nM]	GI50 [1] [nM]	IC50 (EGFR^L858R/T790M/C797S) [nM]	GI50 (Ba/F3 EGFR-Del19/T790M) [nM]
CC(C)n1cc(-c2cnc3cc2O[C@@H](C)CCOc2c(cnn2C)-c2nccc(n2)N3)c(OCC(F)F)n1 [(15)]	< 50	< 50	< 50	< 50	< 50	< 50
CCOc1nn(C2CCN(C)CC2F)cc1-c1cnc2cc1O[C@@H](C)CCOc1c(cnn1C)-c1nccc(n1)N2 (stereo partly drawn) [(16)]	< 50	< 50	< 50	< 50	< 50	< 50
CCOc1nn(C2CC2)cc1-c1cnc2cc1O[C@@H](C)CCOc1c(cnn1C)-c1nccc(n1)N2 [(18)]	< 50	< 50	< 50	< 50	< 50	< 50
CCOc1nn(C2CC2CN2CCOCC2)cc1-c1cnc2cc1O[C@@H](C)CCOc1c(cnn1C)-c1nccc(n1)N2 (stereo partly drawn) [(20)]	< 50	< 50	< 50	< 50	< 50	< 50
CCOc1nn(CC(F)F)cc1-c1cnc2cc1O[C@@H](C)CCOc1c(cnn1C)-c1nccc(n1)N2 [(29)]	< 50	< 50	< 50	< 50	< 50	< 50
CCOc1nn(C2CC3CCC(C2)O3)cc1-c1cnc2cc1O[C@@H](C)CCOc1c(cnn1C)-c1nccc(n1)N2 (stereo partly drawn) [(30)]	< 50	< 50	< 50	< 50	< 50	< 50
C[C@H]1CCOc2c(cnn2C)-c2nccc(n2)Nc2cc(c(-c3cn(C4CC4)nc3OCC(F)(F)F)cn2)O1 [(32)]	< 50	< 50	< 50	< 50	< 50	< 50
CCOc1nn(C2CC(C)(C)OC(C)(C)C2)cc1-c1cnc2cc1O[C@@H](C)CCOc1c(cnn1C)-c1nccc(n1)N2 [(33)]	< 50	< 50	50 to 100	< 50	< 50	50 to 100
CCOc1nn(-c2ccncc2)cc1-c1cnc2cc1O[C@@H](C)CCOc1c(cnn1C)-c1nccc(n1)N2 [(34)]	< 50	< 50	< 50	< 50	< 50	50 to 100
CCOc1ncc(C)cc1-c1cnc2cc1O[C@@H](C)CCOc1c(cnn1C)-c1nccc(n1)N2 [(35)]	< 50	≥ 1000	≥ 1000	100 to 1000	100 to 1000	100 to 1000
C[C@H]1CCOc2c(cnn2C)-c2nccc(n2)Nc2cc(c(-c3cn(C4CN(C5COC5)C4)nc3OCCF)cn2)O1 [(36)]	< 50	< 50	< 50	< 50	< 50	< 50
CCOc1nn(C2CC3CCC(C2)N3C)cc1-c1cnc2cc1O[C@@H](C)CCOc1c(cnn1C)-c1nccc(n1)N2 (stereo partly drawn) [(37)]	< 50	< 50	< 50	< 50	< 50	< 50
CCOc1nn(C2CCN(C3COC3)CC2)cc1-c1cnc2cc1O[C@@H](C)CCOc1c(cnn1C)-c1nccc(n1)N2 [(40)]	< 50	< 50	< 50	< 50	< 50	< 50
CCCOc1nn(C2CC2)cc1-c1cnc2cc1O[C@@H](C)CCOc1c(cnn1C)-c1nccc(n1)N2 [(42)]	< 50	< 50	< 50	< 50	< 50	< 50
C[C@H]1CCOc2c(cnn2C)-c2nccc(n2)Nc2cc(c(-c3cn(C4CC4)nc3OCCF)cn2)O1 [(43)]	< 50	< 50	< 50	< 50	< 50	< 50
C[C@H]1CCOc2c(cnn2C)-c2nccc(n2)Nc2cc(c(-c3cn(C)cc3OCC(F)(F)F)cn2)O1 [(48), (10S)-5,10-dimethyl-13-[1-methyl-4-(2,2,2-trifluoroethoxy)pyrrol-3-yl]-7,11-dioxa-4,5,15,17,21,22-hexazatetracyclo[16.3.1.1^12,16.0^2,6]tricosa-1(22),2(6),3,12(23),13,15,18,20-octaene]	< 50	< 50	< 50	< 50	< 50	< 50
C[C@H]1CCOc2c(cnn2C)-c2nccc(n2)Nc2cc(c(-c3cn(CCN4CCCC4)nc3OCC(F)(F)F)cn2)O1 [(56)]	< 50	< 50	< 50	< 50	< 50	< 50
CCOC(=O)CN1CCC(n2cc(-c3cnc4cc3O[C@@H](C)CCOc3c(cnn3C)-c3nccc(n3)N4)c(OCC)n2)CC1 [(62)]	< 50	< 50	< 50	< 50	< 50	< 50
C[C@H]1CCOc2c(cnn2C)-c2nccc(n2)Nc2cc(c(Nc3ccn(C)n3)cn2)O1 [(70)]	< 50	< 50	< 50	< 50	< 50	< 50
C[C@H]1CCOc2c(cnn2C)-c2nccc(n2)Nc2cc(c(-c3cc4ccccc4n3C)cn2)O1 [(74)]	100 to 1000	≥ 1000	≥ 1000	100 to 1000	100 to 1000	100 to 1000
C[C@H]1CCOc2c(cnn2C)-c2nccc(n2)Nc2cc(c(-c3ccc4c(ccn4C)c3)cn2)O1 [(75)]	< 50	50 to 100	100 to 1000	< 50	< 50	50 to 100
C[C@H]1CCOc2c(cnn2C)-c2nccc(n2)Nc2cc(c(-c3cnc(N4CCN(C)CC4)n3C)cn2)O1 [(77)]	< 50	< 50	100 to 1000	< 50	< 50	50 to 100
Cc1c(-c2cnc3cc2O[C@@H](C)CCOc2c(cnn2C)-c2nccc(n2)N3)cnn1C1CCN(CCCF)CC1 [(84)]	< 50	< 50	< 50	< 50	< 50	< 50
Cc1nn(C2CCN(CCF)CC2)cc1-c1cnc2cc1O[C@@H](C)CCOc1c(cnn1C)-c1nccc(n1)N2 [(85)]	< 50	< 50	< 50	< 50	< 50	< 50
C[C@H]1CCOc2c(cnn2C)-c2nccc(n2)Nc2cc(c(-c3ccnn3CCN3CCOCC3)cn2)O1 [(89)]	< 50	≥ 1000	≥ 1000	≥ 1000	100 to 1000	≥ 1000
C[C@H]1CCOc2c(cnn2C)-c2nccc(n2)Nc2cc(c(-c3ncc(CN4CCN(C)CC4)s3)cn2)O1 [(92)]	< 50	< 50	< 50	< 50	< 50	< 50
C[C@H]1CCOc2c(cnn2C)-c2nccc(n2)Nc2cc(c(-c3ccc(CN4CCN(C)CC4)n3C)cn2)O1 [(103)]	< 50	100 to 1000	100 to 1000	100 to 1000	< 50	100 to 1000
C[C@H]1CCOc2c(cnn2C)-c2nccc(n2)Nc2cc(c(-c3ncc(CN4CCOCC4)s3)cn2)O1 [(115)]	< 50	< 50	< 50	< 50	< 50	< 50
C[C@H]1CCOc2c(cnn2C)-c2nccc(n2)Nc2cc(c(-c3cnn(CCCN(C)C)c3)cn2)O1 [(123)]	< 50	< 50	< 50	< 50	< 50	< 50
C[C@H]1CCOc2c(cnn2C)-c2nccc(n2)Nc2cc(c(-c3ccc(CN4CCOCC4)cc3)cn2)O1 [(124)]	< 50	< 50	< 50	< 50	< 50	< 50
